Laboratory results as given in US9290451B2 (Hoffmann-La Roche Inc., priority 2011, dated 2016).
pEC50: −log10 of the molar value. Where two headings read alike, the source gives them in different places.

Tests used:
[1] = molecular target: human CB1 receptors (Homo sapiens (Human), UniProt P21554); assay: cAMP assay, CHO cells expressing human CB1 receptors; assay type: cell-based
Outline: (§1)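 Read-out is TR-FRET (excitation 355 nm, emission 730/645 nm) after cell lysis, with cAMP content taken from a standard curve and EC50 calculated. Cells were pretreated with 1 mM IBMX in Krebs Ringer bicarbonate buffer, then incubated with compounds for 30 min at 30 °C.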

[2] = molecular target: human CB2 receptors (Homo sapiens (Human), UniProt P34972); assay: cAMP assay, CHO cells expressing human CB2 receptors; assay type: cell-based
Sequence of human CB2 receptors (P34972 whole entry): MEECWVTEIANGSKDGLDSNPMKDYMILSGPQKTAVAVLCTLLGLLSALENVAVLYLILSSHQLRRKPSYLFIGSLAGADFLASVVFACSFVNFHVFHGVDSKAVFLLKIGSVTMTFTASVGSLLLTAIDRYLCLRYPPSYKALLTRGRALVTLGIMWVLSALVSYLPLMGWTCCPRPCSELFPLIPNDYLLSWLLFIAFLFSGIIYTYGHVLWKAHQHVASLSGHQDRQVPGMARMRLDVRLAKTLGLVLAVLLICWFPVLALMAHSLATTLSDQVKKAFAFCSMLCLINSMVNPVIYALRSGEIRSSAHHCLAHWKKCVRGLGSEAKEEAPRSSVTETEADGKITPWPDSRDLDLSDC
Outline: as §1

[3] = CHO cells expressing human CB1, cAMP, read-out: human CB1 EC50
[4] = CHO cells expressing human CB2, cAMP, read-out: human CB2 EC50

Sequence of human CB1 receptors (P21554 whole entry): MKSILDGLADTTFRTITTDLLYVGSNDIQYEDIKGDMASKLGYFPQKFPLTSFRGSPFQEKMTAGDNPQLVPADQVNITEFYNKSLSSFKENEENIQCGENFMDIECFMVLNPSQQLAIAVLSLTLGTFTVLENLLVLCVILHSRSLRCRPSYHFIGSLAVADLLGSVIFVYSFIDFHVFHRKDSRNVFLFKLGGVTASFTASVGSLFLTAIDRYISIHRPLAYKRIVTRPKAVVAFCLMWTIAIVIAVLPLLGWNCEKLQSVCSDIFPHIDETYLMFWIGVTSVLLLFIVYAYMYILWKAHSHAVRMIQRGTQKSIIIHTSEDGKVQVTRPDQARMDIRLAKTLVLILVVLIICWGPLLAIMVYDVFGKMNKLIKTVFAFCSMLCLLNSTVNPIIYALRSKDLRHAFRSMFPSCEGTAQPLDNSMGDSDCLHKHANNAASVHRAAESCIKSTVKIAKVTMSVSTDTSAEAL

| SMILES | pEC50 [1, 3] | pEC50 [2, 4] | pEC50 [1] | pEC50 [2] |
| --- | --- | --- | --- | --- |
| O=C(c1ccc(N2CCCC2)c(OCC2CC2)n1)N1CCSCC1 [Example 16, (6-Cyclopropylmethoxy-5-pyrrolidin-1-yl-pyridin-2-yl)-thiomorpholin-4-yl-methanone] | < 5.00 | 7.78 |  |  |
| O=C(N[C@@H](c1ccccn1)C(F)(F)F)c1ccc(C2CC2)c(Cc2ccc(F)cc2)n1 [Example 332, 5-Cyclopropyl-6-(4-fluoro-benzyl)-pyridine-2-carboxylic acid ((S)-2,2,2-trifluoro-1-pyridin-2-yl-ethyl)-amide] | 7.04 | 8.35 |  |  |
| CC(C)(NC(=O)c1ccc(N2CCCS2(=O)=O)c(OCC2CC2)n1)c1nccs1 [Example 77, 6-(Cyclopropylmethoxy)-5-(1,1-dioxido-isothiazolidin-2-yl)-N-[2-(1,3-thiazol-2-yl)propan-2-yl]pyridine-2-carboxamide] | < 5.00 | 5.85 |  |  |
| CCC(CC)(NC(=O)c1ccc(N(CC(F)(F)F)CC(F)(F)F)c(OCC2CC2)n1)C(=O)NC [Example 165, 5-[Bis-(2,2,2-trifluoro-ethyl)-amino]-6-cyclopropylmethoxy-pyridine-2-carboxylic acid (1-ethyl-1-methylcarbamoyl-propyl)-amide] | 5.92 | 8.14 |  |  |
| CC(C)C[C@H](CO)NC(=O)c1ccc(C2CC2)c(OCC2CC2)n1 [Example 174, (R)-5-Cyclopropyl-6-(cyclopropylmethoxy)-N-(1-hydroxy-4-methylpentan-2-yl)picolinamide] | < 5.00 | 7.49 |  |  |
| CC(C)(NC(=O)c1ccc(C2CC2)c(-c2cccc(Cl)c2)n1)c1nccs1 [Example 116, 6-(3-Chloro-phenyl)-5-cyclopropyl-pyridine-2-carboxylic acid (1-methyl-1-thiazol-2-yl-ethyl)-amide] |  |  | 5.84 | 7.07 |
| O=C(NC1(c2nccs2)COC1)c1ccc(C2CC2)c(OCC(F)(F)F)n1 [Example 304, 5-Cyclopropyl-6-(2,2,2-trifluoro-ethoxy)-pyridine-2-carboxylic acid (3-thiazol-2-yl-oxetan-3-yl)-amide] | < 5.00 | 6.87 |  |  |
| Cc1nc(C(C)(C)NC(=O)c2ccc(C3CCCO3)c(OCC3CC3)n2)no1 (centres unmarked) [Example 123, 6-Cyclopropylmethoxy-5-(tetrahydro-furan-2-yl)-pyridine-2-carboxylic acid [1-methyl-1-(5-methyl-[1,2,4]oxadiazol-3-yl)-ethyl]-amide] | < 5.00 | 7.70 |  |  |
| CC(C)CC(C#N)NC(=O)c1ccc(N2CC(F)(F)C2)c(OCC2CC2)n1 (centres unmarked) [Example 271, 6-Cyclopropylmethoxy-5-(3,3-difluoro-azetidin-1-yl)-pyridine-2-carboxylic acid (1-cyano-3-methyl-butyl)-amide] | < 5.00 | 8.10 |  |  |
| O=C(NN1CCCCC1)c1ccc(C2CC2)c(OCC2CC2)n1 [Example 42, 5-Cyclopropyl-6-cyclopropylmethoxy-pyridine-2-carboxylic acid piperidin-1-ylamide] | < 5.00 | 5.83 |  |  |
| Cc1nc(C(NC(=O)c2ccc(C(F)(F)F)c(OCC3CC3)n2)C2CC2)no1 (centres unmarked) [Example 229, 6-Cyclopropylmethoxy-5-trifluoromethyl-pyridine-2-carboxylic acid [cyclopropyl-(5-methyl-[1,2,4]oxadiazol-3-yl)-methyl]-amide] | < 5.00 | 7.28 |  |  |
| CCC(CC)(NC(=O)c1ccc(C(F)(F)F)c(OCC2CCOCC2)n1)C(=O)NC [Example 253, 6-(Tetrahydro-pyran-4-ylmethoxy)-5-trifluoromethyl-pyridine-2-carboxylic acid (1-ethyl-1-methylcarbamoyl-propyl)-amide] | < 5.00 | 7.84 |  |  |
| NC(=O)[C@H](CC1CC1)NC(=O)c1ccc(NC2CC2)c(OCC2CC2)n1 [Example 133, 5-Cyclopropylamino-6-cyclopropylmethoxy-pyridine-2-carboxylic acid ((S)-1-carbamoyl-2-cyclopropyl-ethyl)-amide] | < 5.00 | 7.42 |  |  |
| CNC(=O)[C@@H](NC(=O)c1ccc(N2CC(F)(F)C2)c(OCC2CC2)n1)C(C)(C)C [Example 208, (S)-6-(Cyclopropylmethoxy)-5-(3,3-difluoroazetidin-1-yl)-N-(3,3-dimethyl-1-(methylamino)-1-oxobutan-2-yl)picolinamide] | < 5.00 | 8.05 |  |  |
| CC(C)CC(NC(=O)c1ccc(N2CC(F)(F)C2)c(OCC2CC2)n1)c1cccnn1 (centres unmarked) [Example 321, 6-Cyclopropylmethoxy-5-(3,3-difluoro-azetidin-1-yl)-pyridine-2-carboxylic acid (3-methyl-1-pyridazin-3-yl-butyl)-amide] | < 5.00 | 7.72 |  |  |
| CC(C)C[C@H](NC(=O)c1ccc(N2CC(F)(F)C2)c(-c2cccc(Cl)c2)n1)C(N)=O [Example 140, 6-(3-Chloro-phenyl)-5-(3,3-difluoro-azetidin-1-yl)-pyridine-2-carboxylic acid ((S)-1-carbamoyl-3-methyl-butyl)-amide] | < 5.00 | 6.52 |  |  |

| SMILES | pEC50 [1, 3] | pEC50 [2, 4] | pEC50 [1] | pEC50 [2] |
| --- | --- | --- | --- | --- |
| CC(C)(NC(=O)c1ccc(C2CCOC2)c(-c2cccc(Cl)c2)n1)c1nccs1 (centres unmarked) [Example 101, 6-(3-Chloro-phenyl)-5-(tetrahydro-furan-3-yl)-pyridine-2-carboxylic acid (1-methyl-1-thiazol-2-yl-ethyl)-amide] | < 5.00 | 6.99 |  |  |
| Cc1nc(C(C)(C)NC(=O)c2ccc(N3CC(=O)C3)c(OCC3CC3)n2)no1 [Example 322, 6-Cyclopropylmethoxy-5-(3-oxo-azetidin-1-yl)-pyridine-2-carboxylic acid [1-methyl-1-(5-methyl-[1,2,4]oxadiazol-3-yl)-ethyl]-amide] | < 5.00 | 6.37 |  |  |
| CCC(CC)(NC(=O)c1ccc(Cl)c(OCC2CC2)n1)C(=O)NC [Example 109, 5-Chloro-6-cyclopropylmethoxy-pyridine-2-carboxylic acid (1-ethyl-1-methylcarbamoyl-propyl)-amide] | < 5.00 | 6.75 |  |  |
| Cc1nc(C(NC(=O)c2cccc(-c3ccc(F)c(Cl)c3)n2)C2CC2)no1 (racemic) [Example 232, 6-(3-Chloro-4-fluoro-phenyl)-pyridine-2-carboxylic acid [cyclopropyl-(5-methyl-[1,2,4]oxadiazol-3-yl)-methyl]-amide] | 5.79 | 7.82 |  |  |
| Cc1nc(C(C)(C)NC(=O)c2ccc(N3CCC(=O)C3)c(OCC3CC3)n2)no1 [Example 334, 6-Cyclopropylmethoxy-5-(3-oxo-pyrrolidin-1-yl)-pyridine-2-carboxylic acid [1-methyl-1-(5-methyl-[1,2,4]oxadiazol-3-yl)-ethyl]-amide] | < 5.00 | 6.97 |  |  |
| Cc1nc([C@H](CC(C)C)NC(=O)c2ccc(C3CC3)c(OCC3CC3)n2)no1 [Example 242, 5-Cyclopropyl-6-cyclopropylmethoxy-pyridine-2-carboxylic acid [(+)-3-methyl-1-(5-methyl-[1,2,4]oxadiazol-3-yl)-butyl]-amide] | < 5.00 | 8.92 |  |  |
| CC(C)(CCN1CCOCC1)NC(=O)c1ccc(N2CCCC2)c(OCC2CC2)n1 [Example 35, 6-Cyclopropylmethoxy-5-pyrrolidin-1-yl-pyridine-2-carboxylic acid (1,1-dimethyl-3-morpholin-4-yl-propyl)-amide] | < 5.00 | 8.15 |  |  |
| COCCOc1nc(C(=O)N[C@@H](CC(C)C)C(N)=O)ccc1N1CC(F)(F)C1 [Example 158, 5-(3,3-Difluoro-azetidin-1-yl)-6-(2-methoxy-ethoxy)-pyridine-2-carboxylic acid ((S)-1-carbamoyl-3-methyl-butyl)-amide] | < 5.00 | 7.64 |  |  |
| CC(C)C[C@H](NC(=O)c1ccc(C2CC2)c(Oc2ccc(F)cc2)n1)C(N)=O [Example 187, 5-Cyclopropyl-6-(4-fluoro-phenoxy)-pyridine-2-carboxylic acid ((S)-1-carbamoyl-3-methyl-butyl)-amide] | < 5.00 | 7.28 |  |  |
| Cc1nc([C@@](C)(NC(=O)c2ccc(C3CC3)c(S(=O)(=O)CC(C)C)n2)C2CC2)no1 [Example 382, (−)-5-Cyclopropyl-6-(2-methyl-propane-1-sulfonyl)-pyridine-2-carboxylic acid [1-cyclopropyl-1-(5-methyl-[1,2,4]oxadiazol-3-yl)-ethyl]-amide] | < 5.00 | 7.29 |  |  |
| CCC(CC)(NC(=O)c1ccc(C2CC2)c(OCC2CCCO2)n1)C(=O)NC (centres unmarked) [Example 250, 5-Cyclopropyl-6-(tetrahydro-furan-2-ylmethoxy)-pyridine-2-carboxylic acid (1-ethyl-1-methylcarbamoyl-propyl)-amide] | < 5.00 | 8.02 |  |  |
| CC(C)C[C@H](NC(=O)c1ccc(C2CC2)c(OCC2CCCO2)n1)C(N)=O (stereo partly drawn) [Example 186, N-((S)-1-Amino-4-methyl-1-oxopentan-2-yl)-5-cyclopropyl-6-((tetrahydrofuran-2-yl)methoxy)picolinamide] | 5.83 | 8.96 |  |  |
| CN(C)C(=O)[C@H](CC1CC1)NC(=O)c1ccc(C2CC2)c(OCC2CC2)n1 [Example 222, 5-Cyclopropyl-6-cyclopropylmethoxy-pyridine-2-carboxylic acid ((S)-2-cyclopropyl-1-dimethylcarbamoyl-ethyl)-amide] | < 5.00 | 8.49 |  |  |
| CC(C)(NC(=O)c1ccc(C2CC2)c(OCC(F)(F)F)n1)c1nccs1 [Example 305, 5-Cyclopropyl-6-(2,2,2-trifluoro-ethoxy)-pyridine-2-carboxylic acid (1-methyl-1-thiazol-2-yl-ethyl)-amide] | < 5.00 | 7.30 |  |  |
| CCOC(=O)C(CC)(CC)NC(=O)c1ccc(C(F)(F)F)c(OCC2CC2)n1 [Example 312, 2-[(6-Cyclopropylmethoxy-5-trifluoromethyl-pyridine-2-carbonyl)-amino]-2-ethyl-butyric acid ethyl ester] | < 5.00 | 8.62 |  |  |
